Legend:
KEAP1-mutant NSCLC cells = test: Colony formation in soft agar, KEAP1-mutant NSCLC cells; format: cell-based, human; conditions: 5 μM
Source text: Based on its in situ activity (FIG. 6D and FIG. 12A, 12G) and selectivity (FIGS. 6A, 6B), BPK-29 was chosen for additional biological studies. […] Exogenous expression of […] the growth inhibition caused by BPK-29.

[1] = biological target: T1, HA-NR0B1-C274V binding to FLAG-SNW1 (Homo sapiens, UniProt P51843, C274V); test: Modified in vitro binding assay: HA-NR0B1-C274V from compound-treated HEK293T cells binding to FLAG-SNW1; format: cell-based; conditions: HEK293T cells expressing HA-NR0B1-C274V treated with compound, lysate binding to FLAG-SNW1
T1 construct: expressed in transfected cells; host or cells: HEK293T (pRK5-based plasmids)
T1 sequence (P51843 whole entry C274V): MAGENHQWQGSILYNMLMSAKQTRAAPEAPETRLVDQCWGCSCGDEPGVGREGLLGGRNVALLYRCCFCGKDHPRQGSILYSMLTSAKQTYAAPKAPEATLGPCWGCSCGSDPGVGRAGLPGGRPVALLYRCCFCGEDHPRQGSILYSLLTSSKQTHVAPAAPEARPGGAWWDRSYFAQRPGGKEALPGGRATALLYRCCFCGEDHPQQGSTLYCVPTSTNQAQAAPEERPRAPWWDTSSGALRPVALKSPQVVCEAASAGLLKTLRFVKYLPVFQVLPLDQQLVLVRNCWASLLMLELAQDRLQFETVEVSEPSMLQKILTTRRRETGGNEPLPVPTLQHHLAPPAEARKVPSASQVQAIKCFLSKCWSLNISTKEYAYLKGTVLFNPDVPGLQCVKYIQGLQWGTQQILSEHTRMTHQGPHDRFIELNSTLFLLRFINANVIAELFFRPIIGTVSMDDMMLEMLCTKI
Protocol: FIG. 5A-FIG. 5G show covalent ligand targeting C274 disrupts NR0B1 protein complexes. […] Percentage of NR0B1 bound to SNW1 was normalized to vehicle (DMSO). A hit compound BPK-26 is marked in red. […] HEK293T cells expressing the indicated proteins were treated with BPK-29 or vehicle (3 h) prior to treatment with BPK-29yne (30 min). Immunoprecipiated proteins were analyzed by in-gel fluorescence-scanning and immunoblotting. […] HEK293T cells expressing HA-NR0B1-WT or HA-NR0B1-C274V proteins were treated with DMSO or BPK-29, after which lysates were generated and evaluated for binding to FLAG-SNW1, as shown in (B).
FIG. 11A-FIG. 11F illustrate a covalent ligand targeting Cys274 disrupts NR0B1 protein complexes. […] See also FIG. 5C. […] Top: Structures of screening hit BPK-28 and synthesized derivatives. […] FLAG-immunoprecipitates were prepared from each lysate and subjected to proteolytic digestion, whereupon tryptic peptides harboring C274 were analyzed by LC-MS/MS. […] Immunoprecipitates were analyzed by in-gel fluorescence-scanning to assess BPK-29yne labeling or by immunoblot for FLAG-NR0B1. […] In a modified in vitro binding assay shown in FIG. 5B, HEK293T cells expressing HA-NR0B1-WT or an HA-NR0B1-C274V mutant were treated with DMSO or BPK-26 (20 μM, 3 h), after which lysates were and interaction with FLAG-SNW1 assessed. […]

Row | sensitivity of the C274V-NR0B1 interaction with SNW1 to ligand [1] | SMILES | colony formation in soft agar (KEAP1-mutant NSCLC cells)
1 |  | O=C(c1ccc(N2CCOCC2)cc1)N1CCC(CN(C(=O)CCl)c2cncnc2)CC1 [BPK-9, 2-chloro-N-((1-(4-morpholinobenzoyl)piperidin-4-yl)methyl)-N-(pyrimidin-5-yl)acetamide] | much less of an effect
2 | not sensitive | O=C(CCl)N(Cc1cccc(Cl)c1F)c1ccc(Cl)nc1 [BPK-26, 2-chloro-N-(3-chloro-2-fluorobenzyl)-N-(6-chloropyridin-3-yl)acetamide] | 
3 | not sensitive | O=C(c1ccc(N2CCOCC2)cc1)N1CCCC(N(Cc2ccccc2)C(=O)CCl)CC1 (stereo not shown) [BPK-29, N-benzyl-2-chloro-N-(1-(4-morpholinobenzoyl)azepan-4-yl)acetamide] | blocked colony formation

From patent US20200278355A1, “CONJUGATED PROTEINS AND USES THEREOF” (THE SCRIPPS RESEARCH INSTITUTE, priority 2017, published 2020)
